Values of other authors in the PKSmart pharmacokinetics tables (Seal et al. 2025).

Legend:
[1] = Lombardo et al. 2013, J Clin Pharmacol 53:178, doi 10.1177/0091270012440282; settings: for Vd / clearance: in vivo, iv; for fraction unbound: plasma
[2] = Lombardo, Berellini, Obach 2018, Drug Metab Dispos 46:1466, doi 10.1124/dmd.118.082966; settings: human; for MRT / Vd / clearance / half-life: in vivo, iv; for fraction unbound: plasma

Row | Compound | Vd ([1]; rat) | clearance ([1]; rat) | MRT [2] | Vd [2] | clearance [2] | half-life [2] | Vd ([1]; dog) | clearance ([1]; dog) | fraction unbound ([1]; dog) | fraction unbound ([1]; rat) | fraction unbound [2] | Vd ([1]; monkey) | clearance ([1]; monkey) | fraction unbound ([1]; monkey)
1 | COc1nc(C)nc(Cl)c1NC1=NCCN1 | 3.2 L/kg | 50.1 mL/min/kg | 2.7 h | 1.8 L/kg | 11 mL/min/kg | 2.2 h | – | – | – | – | – | – | – | –
2 | C[C@@H](CN1CC(=O)NC(=O)C1)N1CC(=O)NC(=O)C1 | – | – | 3 h | 0.55 L/kg | 3.1 mL/min/kg | 2.5 h | 0.72 L/kg | 11.5 mL/min/kg | – | – | – | – | – | –
3 | COCCCOc1ccnc(C[S+](O)c2nc3ccccc3[n-]2)c1C (centres undefined) | 1.04 L/kg | 82.4 mL/min/kg | 0.92 h | 0.22 L/kg | 4 mL/min/kg | 1 h | 2.62 L/kg | 86 mL/min/kg | 0.0864 | 0.073 | – | – | – | –
4 | O=c1c(O)c(-c2ccc(O)c(O)c2)oc2cc(O)cc(O)c12 | 0.28 L/kg | 116 mL/min/kg | 0.2 h | 0.12 L/kg | 11 mL/min/kg | 0.6 h | – | – | – | – | 0.009 | – | – | –
5 | COc1ccc2c3c1OC1C(=O)CC[C@@]4(O)[C@@H](C2)N(C)CC[C@]314 (some centres undefined) | – | – | – | – | – | – | – | – | – | 0.87 | 0.55 | – | – | –
6 | CN(C)CCC=C1c2ccccc2CCc2ccccc21 | 11 L/kg | 71 mL/min/kg | 24 h | 8.7 L/kg | 6.1 mL/min/kg | 17 h | – | – | – | 0.11 | – | – | – | –
7 | CCN(CC)CCNC(=O)c1ccc(NC(C)=O)cc1 | 2.9 L/kg | 28 mL/min/kg | 7.9 h | 1.9 L/kg | 4 mL/min/kg | 6.4 h | 1.9 L/kg | 6.4 mL/min/kg | 0.913 | 0.58 | 0.9 | – | – | –
8 | CN/C(=C\[N+](=O)[O-])NCCSCc1ccc(CN(C)C)o1 | 2.87 L/kg | – | 2.1 h | 1.2 L/kg | – | 2.1 h | 1.65 L/kg | – | – | 1 | – | – | – | –
9 | CNCCCN1c2ccccc2CCc2ccccc21 | 19.8 L/kg | – | 23 h | 15 L/kg | – | 22 h | – | – | – | – | – | – | – | –
10 | CCOC(=O)C1(c2ccccc2)CCN(C)CC1 | 9.2 L/kg | 245 mL/min/kg | 6.4 h | 2.3 L/kg | 4.9 mL/min/kg | 7.9 h | 2.4 L/kg | 43 mL/min/kg | – | – | 0.42 | – | – | –
11 | C#C[C@]1(O)CC[C@H]2[C@@H]3CCc4cc(OS(=O)(=O)O)ccc4[C@H]3CC[C@@]21C | – | – | 8.2 h | 2.3 L/kg | 4.7 mL/min/kg | 8.4 h | – | – | – | – | 0.011 | 21 L/kg | 39 mL/min/kg | –
12 | CON=C(C(=O)NC1C(=O)N2C(C(=O)O)=C(COC(C)=O)CS[C@H]12)c1csc(N)n1 (some centres undefined) | – | – | 1.2 h | 0.19 L/kg | 2.7 mL/min/kg | 1.2 h | 0.5 L/kg | 8.13 mL/min/kg | – | 0.59 | 0.6 | – | – | –
13 | CC[C@@H](CO)NCCN[C@@H](CC)CO | – | – | 2.7 h | 1.7 L/kg | 10 mL/min/kg | 3.1 h | 3.8 L/kg | 13 mL/min/kg | – | – | 0.18 | – | – | –
14 | CO[C@@]1(NC(=O)Cc2cccs2)C(=O)N2C(C(=O)O)=C(COC(N)=O)CS[C@@H]21 | – | – | 0.79 h | 0.17 L/kg | 3.6 mL/min/kg | 0.81 h | 0.6 L/kg | 11 mL/min/kg | – | – | 0.73 | – | – | –
15 | CN(C)CCCC1(c2ccc(F)cc2)OCc2cc(C#N)ccc21 (centres undefined) | 21 L/kg | 82 mL/min/kg | 47 h | – | 4.3 mL/min/kg | 33 h | 10 L/kg | 14 mL/min/kg | 0.444 | 0.26 | – | 10 L/kg | 40 mL/min/kg | 0.399
